#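 Test compounds were applied to cells in 96-well plates for 48 hours at 5 doses. GI50 is the concentration that inhibits growth by half. Definition used: TGI = concentration required for complete inhibition of growth.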 Where a SMILES comes first, the peptide text is derived from it. [ ]: non-standard residue; d: D form. The star is where a group is joined. ξ: configuration not given here. NMeF = CN[CH](Cc1ccccc1)C(=O)O; ξNMe2Val = CC(C)C(C(=O)*)N(C)C; NMeV = CN[CH](C(=O)O)C(C)C; OtBu = CC(C)(C)O*
# Key:
# Test in all cases: NCI-60 cell line screen, 48 h
# [1] = tested on: HT29 colon
# [2] = tested on: BT-549 breast
# [3] = tested on: DU-145 prostate
# [4] = tested on: RXF 393 renal
# [5] = tested on: SNB-19 CNS
# [6] = tested on: HS 578T breast
# [7] = tested on: UACC-257 melanoma
# [8] = tested on: UACC-62 melanoma
# [9] = tested on: CCRF-CEM leukemia
# [10] = tested on: M19-MEL melanoma
SMILES,TGI [1],TGI [2],TGI [3],TGI [4],TGI [5],TGI [6],TGI [7],TGI [8],TGI [9],TGI [10],GI50 [1],GI50 [2],GI50 [3],GI50 [4],GI50 [5],GI50 [6],GI50 [8],GI50 [9]
O=c1[nH]c(=O)n(C2CC(O)C(CO)O2)cc1Br (configuration not stated),> 100 µM,> 100 µM,> 100 µM,> 100 µM,> 100 µM,> 100 µM,> 100 µM,> 100 µM,> 100 µM,,,,,,,,,
CCOC(=O)c1cc(C)nc2c1c(=O)n(-c1ccccc1)c(=O)n2CCCCN1CCN(c2ncccn2)CC1,> 100 µM,> 100 µM,> 100 µM,> 100 µM,,> 100 µM,> 100 µM,> 100 µM,97.7 µM,,,,,,,,,
O=C(NC1C/C(=N/O)c2c(Br)sc(Br)c21)C(F)(F)F (configuration not stated),> 100 µM,> 100 µM,> 100 µM,> 100 µM,> 100 µM,36.3 µM,72.3 µM,> 100 µM,48.5 µM,,,,,,,,,
O=C1Nc2ccc(Cl)c(I)c2C1=O,75.9 µM,,,29.8 µM,80.5 µM,,33 µM,34.8 µM,57.4 µM,24.9 µM,,,,,,,,
COc1cc(/C=C/C(=N\NC(N)=S)c2sc(NNC(C)=O)nc2C)ccc1O,> 100 µM,> 100 µM,> 100 µM,> 100 µM,> 100 µM,> 100 µM,> 100 µM,> 100 µM,> 100 µM,,,,,,,,,
CC(=O)OCC1OC(N=[N+]=[N-])C(OC(C)=O)C(OC(C)=O)C1OC1OC(COC(C)=O)C(OC(C)=O)C(OC(C)=O)C1OC(C)=O (configuration not stated),> 100 µM,,,> 100 µM,> 100 µM,,> 100 µM,> 100 µM,> 100 µM,> 100 µM,,,,,,,,
CCOC(=O)NN(C(=O)OCC)C(C(=O)c1ccccc1)N(NC(=O)OCC)C(=O)OCC,> 100 µM,> 100 µM,> 100 µM,> 100 µM,> 100 µM,> 100 µM,> 100 µM,> 100 µM,> 100 µM,,,,,,,,,
C(=N\NC1=NCCN1)/c1ccc2ccccc2c1,30.4 µM,25.3 µM,> 100 µM,34.6 µM,,43.3 µM,29.3 µM,29 µM,41.8 µM,,,,,,,,,
Cc1[nH]c2nccn2c(=O)c1CCO,> 10 µM,> 10 µM,> 10 µM,> 10 µM,> 10 µM,> 10 µM,> 10 µM,> 10 µM,> 10 µM,,,,,,,,,
C/C(=N\NC(N)=S)c1nc2ncccc2[nH]1,> 100 µM,> 96.7 µM,> 100 µM,> 100 µM,> 100 µM,> 100 µM,> 100 µM,> 100 µM,> 100 µM,,,,,,,,,
O=C1c2cccnc2-c2nccc3c2c1nc1ccccc13,2.5 µM,0.618 µM,0.962 µM,0.459 µM,1.28 µM,2.26 µM,1.06 µM,0.541 µM,10.2 µM,,,,,,,,,
Fc1ccc(C(OCCN2CCC3CCC(C2)N3C/C=C/c2cccs2)c2ccc(F)cc2)cc1 (configuration not stated),15.4 µM,25.9 µM,26 µM,16.3 µM,27.9 µM,28.4 µM,15.1 µM,23.7 µM,26.7 µM,,,,,,,,,
CSc1ncc2c(n1)-c1ccccc1OC2,> 100 µM,> 100 µM,> 100 µM,> 100 µM,> 100 µM,> 100 µM,> 100 µM,> 100 µM,> 100 µM,,,,,,,,,
CC(C)C(C(=O)N(C)C(Cc1ccccc1)C(=O)N(C)C(C(=O)N(C)C(C(=O)N1CCCC1C(=O)OC(C)(C)C)C(C)C)C(C)C)N(C)C (configuration not stated) (ξNMe2Val-[NMeF][NMeV][NMeV]P-OtBu; configuration not given here),> 100 µM,,,,> 100 µM,,> 100 µM,> 100 µM,> 100 µM,> 100 µM,,,,,,,,
COC(=O)c1c2c(cc3c1CC1(Cc4ccccc4C1)C3)CCC2,34 µM,95.5 µM,> 100 µM,52.9 µM,,79.7 µM,47 µM,58.8 µM,40.9 µM,,,,,,,,,
CCCCCCCCCCCCOC1C(COCCN2CCCCC2)OC2OC(C)(C)OC21 (configuration not stated),2.53 µM,5.8 µM,21.6 µM,3.4 µM,8.07 µM,4.17 µM,3.18 µM,3.27 µM,2.99 µM,,,,,,,,,
O=c1[nH]cnc2c1cnn2Cc1cnnn1COCCO,> 100 µM,> 100 µM,> 100 µM,> 100 µM,> 100 µM,> 100 µM,> 100 µM,> 100 µM,,,,,,,,,,
CNC(=O)CNC(=O)N(C[C@@H]1CCCN1C(=O)[C@H](CC(C)C)NC(=O)OC(C)(C)C)C(C)C,> 100 µM,> 100 µM,> 100 µM,> 100 µM,> 100 µM,> 100 µM,,> 100 µM,> 100 µM,,,,,,,,,
Cc1nc2ccc(NC3OCC(O)C(O)C3O)cc2c(=O)n1-c1ccccc1 (configuration not stated),> 100 µM,> 100 µM,> 100 µM,> 100 µM,> 100 µM,> 100 µM,> 100 µM,> 100 µM,,,,,,,,,,
CN(C)CCCn1c(Cn2nc3ccccc3n2)nc2cc(C(F)(F)F)ccc21,46.2 µM,> 100 µM,> 100 µM,> 100 µM,> 100 µM,> 100 µM,33.5 µM,40.8 µM,39.5 µM,,,,,,,,,
COc1ccc([I+]c2ccc(OC)cc2)cc1,> 100 µM,> 100 µM,> 100 µM,> 100 µM,> 100 µM,> 100 µM,> 100 µM,> 100 µM,> 100 µM,,5.54 µM,11.1 µM,60.4 µM,27.3 µM,20.9 µM,18.8 µM,29.9 µM,4.98 µM
COC(=O)c1ccccc1C1CN=NC12Cc1ccc3c(c1C2=O)CCC3 (configuration not stated),> 100 µM,> 100 µM,> 100 µM,> 100 µM,> 100 µM,> 100 µM,> 100 µM,> 100 µM,> 100 µM,,,,,,,,,
COc1ccc2c(c1)/c(=C/C#N)c1c3ccccc3[n+](C)n21,10.6 µM,26.1 µM,8.59 µM,50.1 µM,51.5 µM,50.4 µM,19.3 µM,42.3 µM,13.1 µM,,,,,,,,,

# Source: PubChem BioAssay (NCI)
